ChEMBL document CHEMBL5046251, “Discovery of a Series of Pyrimidine Carboxamides as Inhibitors of Vanin-1” (J Med Chem, 2022)
Active and inactive are the calls of the source. The calls are words filed in the database; no cut-off is given here.

Assays:
[1] = Plasma protein binding in human assessed as unbound fraction; assay type: ADME, cell-free
[2] = Oral bioavailability in rat at 10 mg/kg measured upto 24 hrs by LC-MS/MS analysis; assay type: ADME, organism-based; conditions: in vivo
[3] = AUC in rat at 2 mg/kg, iv measured upto 24 hrs by LC-MS/MS analysis; assay type: ADME, organism-based; parameters: route intravenous, dose 2 mg/kg, time <=24; conditions: in vivo
[4] = Intrinsic clearance in human liver microsomes; assay type: ADME, Microsome
[5] = Plasma protein binding in mouse assessed as unbound fraction; assay type: ADME, cell-free
[6] = Volume of distribution in rat at 2 mg/kg, iv measured upto 24 hrs by LC-MS/MS analysis; assay type: ADME, organism-based; conditions: in vivo
[7] = Intrinsic clearance in human hepatocytes assessed per million cells; assay type: ADME, cell-based, Hepatocyte
[8] = Intrinsic clearance in rat hepatocytes assessed per million cells; assay type: ADME, cell-based, Hepatocyte
[9] = Oral bioavailability in beagle dog; assay type: ADME, organism-based, Canis lupus familiaris; conditions: in vivo
[10] = Intrinsic clearance in human hepatocytes assessed per million cells by relay assay method; assay type: ADME, cell-based, Hepatocyte
[11] = AUC in rat at 10 mg/kg, po measured upto 24 hrs by LC-MS/MS analysis; assay type: ADME, organism-based; parameters: route oral, dose 10 mg/kg, time <=24; conditions: in vivo
[12] = Half life in rat at 2 mg/kg, iv measured upto 24 hrs by LC-MS/MS analysis; conditions: in vivo
[13] = Clearance in rat at 2 mg/kg, iv measured upto 24 hrs by LC-MS/MS analysis; assay type: ADME, organism-based; conditions: in vivo
[14] = Renal clearance in rat at 2 mg/kg, iv assessed glomerular filtration rate; assay type: ADME, organism-based; conditions: in vivo
[15] = tested on: Mus musculus; experiment: Anti-colitis activity against DSS-induced BALB/c mouse model assessed as increase in body weight at 0.5 to 50 mg/kg, po, qd administered for 10 days; assay type: functional, organism-based; conditions: dose 0.5-50 mg/kg, time 10.0 day
[16] = tested on: Mus musculus; experiment: Anti-colitis activity against DSS-induced BALB/c mouse model assessed as reduction in disease activity index at 0.5 to 50 mg/kg, po, qd administered for 10 days; assay type: functional, organism-based; conditions: dose 0.5-50 mg/kg, time 10.0 day
[17] = Inhibition of beagle dog vanin-1
[18] = tested on: CYP2A4; experiment: Inhibition of CYP2A4 (unknown origin) at 3 uM relative to control; assay type: ADME; conditions: human
[19] = Plasma protein binding in Wistar han rat assessed as unbound fraction; assay type: ADME, cell-free
[20] = Plasma protein binding in beagle dog assessed as unbound fraction; assay type: ADME, cell-free, Canis lupus familiaris
[21] = Clearance in beagle dog by LC-MS/MS analysis; assay type: ADME, Canis lupus familiaris; conditions: in vivo
[22] = Volume of distribution at steady state in beagle dog by LC-MS/MS analysis; assay type: ADME, Canis lupus familiaris; conditions: in vivo, read-out: Vdss
[23] = Half life in beagle dog by LC-MS/MS analysis; conditions: in vivo
[24] = Renal clearance in beagle dog assessed as glomerular filtration rate; assay type: ADME, Canis lupus familiaris; conditions: in vivo
[25] = tested on: Mus musculus; experiment: In vivo inhibition of vanin-1 in DSS-induced BALB/c mouse colitis model serum administered for 10 days; assay type: functional, organism-based; conditions: dose 0.5-50 mg/kg, time 10.0 day
[26] = Unbound drug concentration in serum of DSS-induced BALB/c mouse colitis model at 0.5 mg/kg administered for 10 days; assay type: ADME, organism-based; conditions: in vivo, 240 h, time 10 day
[27] = Unbound drug concentration in serum of DSS-induced BALB/c mouse colitis model at 1.5 mg/kg administered for 10 days; assay type: ADME, organism-based; conditions: in vivo, 240 h, time 10 day
[28] = Unbound drug concentration in serum of DSS-induced BALB/c mouse colitis model at 5 mg/kg administered for 10 days; assay type: ADME, organism-based; conditions: in vivo, 240 h, time 10 day
[29] = Unbound drug concentration in serum of DSS-induced BALB/c mouse colitis model at 50 mg/kg administered for 10 days; assay type: ADME, organism-based; conditions: in vivo, 240 h, time 10 day

fraction unbound [1]: 0.812 | bioavailability [2]: 96% | AUC at 24 h [3]: 1790 ng·h/mL | Intrinsic clearance [4]: < 8 µL/min/mg | fraction unbound [5]: 0.941 | Vd [6]: 0.84 L/kg | CLint [7]: < 3 µL/min/1e6 cells | CLint [8]: < 3 µL/min/1e6 cells | bioavailability [9]: 100% | CLint [10]: < 0.16 µL/min/1e6 cells | AUC at 24 h [11]: 8540 ng·h/mL | half-life at 24 h [12]: 1 h | clearance [13]: 19 mL/min/kg | CL [14]: 55% | IC50 [17]: 0.9 nM | inhibition at 3 µM [18]: < 5% | fraction unbound [19]: 0.812 | fraction unbound [20]: 0.826 | clearance [21]: 3.5 mL/min/kg | Vd [22]: 0.94 L/kg | half-life [23]: 3.4 h | CL [24]: 22% | Drug uptake(free) [26]: 1 nM | Drug uptake(free) [27]: 61 nM | Drug uptake(free) [28]: 202 nM | Drug uptake(free) [29]: 773 nM
SMILES: O=C(c1cnc(NCc2cnccn2)nc1)N1CCC2(CCOCC2)C1 [PFI-653]
Activity [15]: Active | Activity [16]: Active | Activity [25]: Dose-Dependent Effect
